Results on 22 compounds are retold here after ChEMBL document CHEMBL1909046, “DrugMatrix in vitro pharmacology data”.

For assay [1], the target named is Receptor tyrosine-protein kinase erbB-2 (Homo sapiens, UniProt P04626). Nature of the assay: biochemical. The assay is classed as cell-based, Insect cells. The note with it: insect cells.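 Further: inhibition of HER2 kinase enzyme activity, measured with Poly(Glu:Tyr) as the phosphorylation substrate.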
The target in assay [2] is T1, C-X-C chemokine receptor type 1 (Homo sapiens, UniProt P25024).
T1 sequence (P25024 whole entry): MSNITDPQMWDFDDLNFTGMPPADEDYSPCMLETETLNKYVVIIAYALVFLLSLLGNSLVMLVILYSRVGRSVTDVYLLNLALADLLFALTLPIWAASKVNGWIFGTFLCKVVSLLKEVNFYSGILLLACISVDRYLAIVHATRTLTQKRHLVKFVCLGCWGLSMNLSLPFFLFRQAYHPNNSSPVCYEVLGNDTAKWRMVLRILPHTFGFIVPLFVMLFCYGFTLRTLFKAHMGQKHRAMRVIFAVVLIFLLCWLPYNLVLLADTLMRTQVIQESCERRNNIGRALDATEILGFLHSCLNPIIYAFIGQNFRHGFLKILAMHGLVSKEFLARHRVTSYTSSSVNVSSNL

Assay [3] addresses 5-hydroxytryptamine receptor 1B (Rattus norvegicus, UniProt P28564). It counts as cell membranes, Wistar, Cerebral cortex, Membrane.
In assay [4] the target is T2, C-C chemokine receptor type 4 (Homo sapiens, UniProt P51679).
T2 sequence (P51679 whole entry): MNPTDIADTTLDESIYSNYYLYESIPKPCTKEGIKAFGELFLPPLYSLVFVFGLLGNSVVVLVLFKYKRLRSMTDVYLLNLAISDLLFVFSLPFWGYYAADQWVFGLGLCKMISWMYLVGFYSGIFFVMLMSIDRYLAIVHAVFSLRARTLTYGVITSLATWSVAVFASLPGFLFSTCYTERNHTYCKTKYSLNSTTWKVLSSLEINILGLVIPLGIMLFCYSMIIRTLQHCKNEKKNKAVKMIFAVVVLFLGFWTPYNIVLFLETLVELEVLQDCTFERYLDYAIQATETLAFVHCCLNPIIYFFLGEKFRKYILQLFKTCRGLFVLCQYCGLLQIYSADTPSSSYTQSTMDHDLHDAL
It counts as cell membranes, Chem-1, Membrane. The note with it: chem-1.

Assay [5] concerns the target T3, Muscarinic acetylcholine receptor M2 (Homo sapiens, UniProt P08172).
T3 sequence (P08172 whole entry): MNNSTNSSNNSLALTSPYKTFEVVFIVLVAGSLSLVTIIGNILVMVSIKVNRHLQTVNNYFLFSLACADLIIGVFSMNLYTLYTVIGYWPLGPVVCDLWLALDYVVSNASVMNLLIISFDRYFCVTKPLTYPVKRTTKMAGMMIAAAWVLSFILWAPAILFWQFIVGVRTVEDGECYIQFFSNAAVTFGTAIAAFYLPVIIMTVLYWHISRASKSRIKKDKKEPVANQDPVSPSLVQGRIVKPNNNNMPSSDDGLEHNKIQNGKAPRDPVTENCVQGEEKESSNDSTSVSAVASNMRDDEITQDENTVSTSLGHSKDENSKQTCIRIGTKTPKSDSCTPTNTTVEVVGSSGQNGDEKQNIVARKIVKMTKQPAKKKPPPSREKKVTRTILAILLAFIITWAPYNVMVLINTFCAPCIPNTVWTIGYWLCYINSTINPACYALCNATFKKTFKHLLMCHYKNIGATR
It counts as cell membranes, CHO-K1, Membrane.

In assay [6] the target is T4, Adenosine receptor A1 (Homo sapiens, UniProt P30542).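 Further: radioligand binding assay at the adenosine A1 receptor, with DPCPX serving as the labelled ligand.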
T4 sequence (P30542 whole entry): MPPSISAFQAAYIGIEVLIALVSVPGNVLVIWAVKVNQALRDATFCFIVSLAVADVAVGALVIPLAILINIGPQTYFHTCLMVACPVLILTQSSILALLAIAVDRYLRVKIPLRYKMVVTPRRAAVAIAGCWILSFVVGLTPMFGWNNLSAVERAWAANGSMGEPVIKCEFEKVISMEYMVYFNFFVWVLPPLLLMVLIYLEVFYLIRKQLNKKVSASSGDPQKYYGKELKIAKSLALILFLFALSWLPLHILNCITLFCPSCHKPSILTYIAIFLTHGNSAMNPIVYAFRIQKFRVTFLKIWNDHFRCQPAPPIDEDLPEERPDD
The assay is classed as cell membranes, CHO, Membrane. Particulars: cho.
Further: in other assays of this panel Not Active means under 50% inhibition at 10 µM.

Chain of 5-hydroxytryptamine receptor 1B (P28564 whole entry): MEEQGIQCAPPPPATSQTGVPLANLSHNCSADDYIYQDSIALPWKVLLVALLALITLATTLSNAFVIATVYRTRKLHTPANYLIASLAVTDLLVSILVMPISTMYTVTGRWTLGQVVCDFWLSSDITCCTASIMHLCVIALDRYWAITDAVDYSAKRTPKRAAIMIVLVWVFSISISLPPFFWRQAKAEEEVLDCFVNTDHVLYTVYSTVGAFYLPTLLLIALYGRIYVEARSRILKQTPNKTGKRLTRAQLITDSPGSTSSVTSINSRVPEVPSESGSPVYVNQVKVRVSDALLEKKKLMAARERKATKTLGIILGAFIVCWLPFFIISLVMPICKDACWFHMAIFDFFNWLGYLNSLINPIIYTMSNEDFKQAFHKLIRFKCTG

Usually IC50 stands for the concentration needed to halve the response being measured. As for `O=C(O)CCCc1ccc(N(CCCl)CCCl)cc1` [CHLORAMBUCIL], the IC50 entry in assay [1], in assay [2], in assay [3], in assay [4], in assay [5] (cho-k1) and in assay [6] was “Not Active” each time.
For `CC(NC(C)(C)C)C(=O)c1cccc(Cl)c1` (stereo not given) [BUPROPION], the IC50 result in assay [1], in assay [2], in assay [3], in assay [4], in assay [5] (cho-k1) and in assay [6] was “Not Active” each time.
With `C=C(C)C1(O)OC(=O)C=C1OC` (stereo not given) [PENICILLIC ACID], the IC50 entry in assay [1], in assay [2], in assay [3], in assay [4], in assay [5] (cho-k1) and in assay [6] was “Not Active” throughout.
As to `CCCC1O[C@@H]2C[C@H]3[C@@H]4CCC5=CC(=O)C=C[C@]5(C)[C@H]4[C@@H](O)C[C@]3(C)[C@]2(C(=O)CO)O1` (stereo not given in full) [BUDESONIDE], the half-maximal inhibitory concentration (IC50) result in assay [1], in assay [2], in assay [3], in assay [4], in assay [5] (cho-k1) and in assay [6] was “Not Active” throughout.
Regarding `COCCc1ccc(OCC(O)CNC(C)C)cc1` (stereo not given) [METOPROLOL], the IC50 entry in assay [1], in assay [2], in assay [3], in assay [4], in assay [5] (cho-k1) and in assay [6] was “Not Active” each time.
As to `CC1CC(OC(=O)C(O)c2ccccc2)CC(C)(C)C1` (stereo not given) [CYCLANDELATE], the IC50 result in assay [1], in assay [2], in assay [3], in assay [4], in assay [5] (cho-k1) and in assay [6] was “Not Active” throughout.
Take `C1CCC(C(CC2CCCCN2)C2CCCCC2)CC1` (stereo not given) [PERHEXILINE]: the IC50 entry in assay [1], in assay [2], in assay [3], in assay [4], in assay [5] (cho-k1) and in assay [6] was “Not Active” each time.
For orientation: Ki means a dissociation constant, usually derived from enzyme kinetics or from competition with a known ligand. As for `CC(C)[C@H]1C(=O)N2CCC[C@H]2[C@]2(O)O[C@](NC(=O)[C@@H]3C=C4c5cccc6[nH]cc(c56)C[C@H]4N(C)C3)(C(C)C)C(=O)N12` [ERGOCORNINE], the IC50 result in assay [1] was “Not Active”; in assay [2] it was “Not Active”; in assay [3] (read-out: IC50) it was 30 nM; in assay [4] it was “Not Active”; in assay [5] (cho-k1) it was “Not Active”; in assay [6], “Not Active”. Besides, the Ki in assay [3] (read-out: Ki) amounted to 19 nM.
In the case of `CC(C)[C@@]1(NC(=O)[C@@H]2C[C@@H]3c4cccc5[nH]cc(c45)C[C@H]3N(C)C2)O[C@@]2(O)[C@@H]3CCCN3C(=O)[C@H](Cc3ccccc3)N2C1=O.CS(=O)(=O)O` [DIHYDROERGOCRISTINE MESYLATE], the IC50 entry in assay [1] was “Not Active”; in assay [2], “Not Active”; in assay [3] (read-out: IC50) it was 24 nM; in assay [4] it was “Not Active”; in assay [5] (cho-k1), “Not Active”; in assay [6], “Not Active”. For the same compound, the Ki in assay [3] (read-out: Ki) amounted to 11 nM.
As to `C[C@]12CCC(=O)C=C1CC[C@@H]1[C@@H]2CC[C@@]2(C)[C@H]1CC[C@]2(C)O` [METHYLTESTOSTERONE], the IC50 result in assay [1], in assay [2], in assay [3], in assay [4], in assay [5] (cho-k1) and in assay [6] was “Not Active” in each case.
On to `Nc1nc2c(ncn2COCCO)c(=O)[nH]1` [ACYCLOVIR], for which the IC50 entry in assay [1], in assay [2], in assay [3], in assay [4], in assay [5] (cho-k1) and in assay [6] was “Not Active” throughout.
Take `CC(C)CN(C[C@@H](O)[C@H](Cc1ccccc1)NC(=O)O[C@H]1CCOC1)S(=O)(=O)c1ccc(N)cc1`: the IC50 entry in assay [1], in assay [2], in assay [3], in assay [4], in assay [5] (cho-k1) and in assay [6] was “Not Active” throughout.
As for `CN(C)CCCN1c2ccccc2Sc2ccccc21` [PROMAZINE], the IC50 result was “Not Active” in assay [1]; “Not Active” in assay [2]; “Not Active” in assay [3]; “Not Active” in assay [4]; 1090 nM in assay [5] (read-out: IC50); “Not Active” in assay [6]. In addition, the Ki in assay [5] (read-out: Ki) was determined as 387 nM.
In the case of `Cc1c(C)c2c(c(C)c1O)CC[C@@](C)(CCC[C@H](C)CCC[C@H](C)CCCC(C)C)O2` [ALPHA-TOCOPHEROL], the IC50 entry in assay [1], in assay [2], in assay [3], in assay [4], in assay [5] (cho-k1) and in assay [6] was “Not Active” throughout.
Consider `Cc1ccc(/N=C/N(C)/C=N/c2ccc(C)cc2C)c(C)c1` [AMITRAZ], for which the IC50 entry in assay [1], in assay [2], in assay [3], in assay [4], in assay [5] (cho-k1) and in assay [6] was “Not Active” each time.
As for `CN(C)c1nc(N(C)C)nc(N(C)C)n1` [ALTRETAMINE], the IC50 entry in assay [1], in assay [2], in assay [3], in assay [4], in assay [5] (cho-k1) and in assay [6] was “Not Active” each time.
As for `CNCCCN1c2ccccc2CCc2ccccc21` [DESIPRAMINE], the IC50 result in assay [1], in assay [2], in assay [3], in assay [4], in assay [5] (cho-k1) and in assay [6] was “Not Active” in each case.
Take CADMIUM ACETATE: the IC50 in assay [1] (read-out: IC50) was 1190 nM; in assay [2], “Not Active”; in assay [3], “Not Active”; in assay [4], “Not Active”; in assay [5] (cho-k1), “Not Active”; in assay [6], “Not Active”. For the same compound, the Ki result in assay [2], in assay [3], in assay [4], in assay [5] (cho-k1) and in assay [6] was “Not Active” each time.
In the case of `COc1cc2c3cc1Oc1cc(ccc1O)C[C@@H]1c4c(cc(OC)c(O)c4Oc4ccc(cc4)C[C@@H]3N(C)CC2)CC[N+]1(C)C.[Cl-]`, the IC50 entry in assay [1], in assay [2], in assay [3], in assay [4], in assay [5] (cho-k1) and in assay [6] was “Not Active” in each case.
Regarding `CN(Cc1ccc(C(C)(C)C)cc1)Cc1cccc2ccccc12` [BUTENAFINE], the IC50 result in assay [1], in assay [2], in assay [3], in assay [4], in assay [5] (cho-k1) and in assay [6] was “Not Active” each time.
With `C[C@H](CCC(=O)O)[C@H]1CC[C@H]2[C@@H]3[C@H](O)C[C@@H]4C[C@H](O)CC[C@]4(C)[C@H]3C[C@H](O)[C@]12C` [CHOLIC ACID], the IC50 result in assay [1], in assay [2], in assay [3], in assay [4], in assay [5] (cho-k1) and in assay [6] was “Not Active” in each case.
For `CC1=C2C(=CO[C@H](C)[C@H]2C)C(O)=C(C(=O)O)C1=O` [CITRININ], the IC50 result in assay [1], in assay [2], in assay [3], in assay [4], in assay [5] (cho-k1) and in assay [6] was “Not Active” throughout.
